Source: patent US8309582B2, “Small molecule Bcl-Xl/Bcl-2 binding inhibitors” (The Ohio State University Research Foundation, priority 2004, dated 2012)
Like-named read-outs stand apart in the source and are kept apart here.

How the values were obtained:
[1] = target: T1, Bcl-xL (Homo sapiens, UniProt Q07817); assay: Competitive fluorescence polarization assay, displacement of Flu-BakBH3 peptide from Bcl-xL; format: binding
T1 construct: fused on or other part: His tag
Procedure: (§1) Competitive Fluorescence Polarization Assay. The binding affinity of the test agent to Bcl-2 and Bcl-xL was analyzed by a competitive fluorescence polarization assay, in which the ability of the agent to displace the binding of a Bak BH3-domain peptide to either Bcl-2 or Bcl-xL was determined. Flu-BakBH3, a Bak-BH3 peptide labeled at the N-terminus with fluorescein, was purchased from Genemed Synthesis (San Francisco, Calif.). C-Terminal-truncated, His-tagged Bcl-xL was purchased from EMD Biosciences (San Diego, Calif.), and soluble GST-fused Bcl-2 was obtained from Santa Cruz (Santa Cruz, Calif.). The KD determination was carried out in a dual-pathlength quartz cell with readings taken at […] at room temperature using a luminescence spectrometer according to an established procedure (17). Determination of IC50 values. Data from cell viability and FP assays were analyzed by using the CalcuSyn software (Biosoft, Ferguson, Mo.) to determine IC50 values, in which the calculation was based on the medium effect equation (18), i.e., Log(fa/fu)=m log(D)−m log(Dm) (equation 1), where fa and fu denote fraction affected and unaffected, respectively; m represents the Hill-type coefficient signifying the sigmoidicity of the dose-effect curve; D and Dm are the dose used and IC50, respectively.

[2] = system: LNCaP cells; assay: Cell viability analysis (MTT) in LNCaP cells; format: cell-based; conditions: Homo sapiens
Procedure: (§2) Cell viability analysis. The effect of individual test agents on cell viability was assessed by using the MTT {[3-(4,5-dimethylthiazol-2-yl)-2,5-diphenyl-2H-tetrazolium bromide]} assay in six to twelve replicates. Cells were seeded and incubated in 96-well, flat-bottomed plates in serum-free media for 24 h, and were exposed to various concentrations of test agents dissolved in DMSO (final concentration, 0.1%) in serum-free RPMI 1640 medium for different time intervals. Controls received DMSO vehicle at a concentration equal to that in drug-treated cells. The medium was removed, replaced by 200 μl of 0.5 mg/ml of MTT in 10% FBS-containing RPMI-1640 medium, and cells were incubated in the CO2 incubator at 37° C. for 2 h. Supernatants were removed from the wells, and the reduced MTT dye was solubilized in 200 μl/well DMSO. Absorbance at 570 nm was determined on a plate reader.
(§3) Determination of IC50 values. Data from cell viability and FP assays were analyzed by using the CalcuSyn software (Biosoft, Ferguson, Mo.) to determine IC50 values, in which the calculation was based on the medium effect equation (18), i.e., Log(fa/fu)=m log(D)−m log(Dm) (equation 1), where fa and fu denote fraction affected and unaffected, respectively; m represents the Hill-type coefficient signifying the sigmoidicity of the dose-effect curve; D and Dm are the dose used and IC50, respectively.

[3] = target: Bcl-2 (Homo sapiens, UniProt P10415); assay: Competitive fluorescence polarization assay, displacement of Flu-BakBH3 peptide from Bcl-2; format: binding
Procedure: as §1

[4] = system: PC-3 cells; assay: Cell viability analysis (MTT) in PC-3 cells; format: cell-based; conditions: read-out: IC50 (μM) PC3
Procedure: Cell viability analysis. The effect of individual test agents on cell viability was assessed by using the MTT {[3-(4,5-dimethylthiazol-2-yl)-2,5-diphenyl-2H-tetrazolium bromide]} assay in six to twelve replicates. […] Controls received DMSO vehicle at a concentration equal to that in drug-treated cells. […] Supernatants were removed from the wells, and the reduced MTT dye was solubilized in 200 μl/well DMSO. Absorbance at 570 nm was determined on a plate reader.
as §3

[5] = WB (IC50 for WB, Tables 1-9); format: cell-based; conditions: marker, cell line and unit inferred
Procedure: (§4) Immunoblotting. Cells in T-75 flasks were collected by scraping, and suspended in 60 μl of phosphate-buffered saline (PBS). Two μl of the suspension was taken for protein analysis using the Bradford assay kit (Bio-Rad, Hercules, Calif.). To the remaining solution was added the same volume of 2×SDS-PAGE sample loading buffer (100 mM Tris-HCl, pH 6.8, 4% SDS, 5% β-mercaptoethanol 20% glycerol, and 0.1% bromophenol blue). The mixture was sonicated briefly, and boiled for 5 min. Equal amounts of proteins were loaded onto 10% SDS-PAGE gels.
(§5) After electrophoresis, protein bands were transferred to nitrocellulose membranes in a semidry transfer cell. The transblotted membrane was washed twice with Tris-buffered saline (TBS) containing 0.1% Tween 20 (TBST). After blocking with TBST containing 5% nonfat milk for 40 min, the membrane was incubated with the appropriate primary antibody in TBST-1% nonfat milk at 4° C. overnight. All primary antibodies were diluted 1:1000 in 1% nonfat milk-containing TBST. After treatment with the primary antibody, the membrane was washed three times with TBST for a total of 15 min, followed by incubation with goat anti-rabbit or anti-mouse IgG-horseradish peroxidase conjugates (diluted 1:5000) for 1 h at room temperature and three washes with TBST for a total of 1 h. The immunoblots were visualized by enhanced chemiluminescence.

[6] = MTT assay (IC50 for MTT, Tables 1-9); format: cell-based; conditions: cell line and unit inferred
Procedure: as §2, §3

[7] = target: T2, PPARγ (Homo sapiens, UniProt P37231); assay: Analysis of PPARγ activation (transcription factor ELISA, PC-3 nuclear extracts); format: cell-based; conditions: PC-3 cells, 10 μM, 48 h, versus DMSO vehicle
T2 construct: endogenous in cells; host or cells: PC-3 prostate cancer cells
T2 sequence (P37231 1-505): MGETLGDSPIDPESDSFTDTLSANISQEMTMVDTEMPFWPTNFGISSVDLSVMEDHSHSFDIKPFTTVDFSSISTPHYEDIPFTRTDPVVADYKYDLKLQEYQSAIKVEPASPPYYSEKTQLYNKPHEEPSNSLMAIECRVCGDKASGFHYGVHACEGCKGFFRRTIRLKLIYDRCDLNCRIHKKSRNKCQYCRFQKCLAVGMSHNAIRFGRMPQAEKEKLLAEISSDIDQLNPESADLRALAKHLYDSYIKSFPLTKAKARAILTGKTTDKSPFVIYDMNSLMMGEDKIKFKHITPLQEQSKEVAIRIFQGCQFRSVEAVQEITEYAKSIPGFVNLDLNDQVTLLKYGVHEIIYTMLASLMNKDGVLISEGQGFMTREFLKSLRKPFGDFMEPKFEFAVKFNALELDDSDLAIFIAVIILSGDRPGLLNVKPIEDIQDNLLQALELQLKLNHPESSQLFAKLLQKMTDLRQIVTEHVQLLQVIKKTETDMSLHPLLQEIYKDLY
Procedure: Analysis of PPARγ activation. The analysis was carried out by using a PPARγ transcription factor ELISA kit (Active Motif, Carlsbad, Calif.), in which an oligonucleotide containing the peroxisome proliferator response element (PPRE) was immobilized onto a 96-well plate. PPARs contained in nuclear extracts bind specifically to this oligonucleotide and are detected through an antibody directed against PPARγ. […] Cells were collected, and nuclear extracts were prepared with a Nuclear Extract kit (Active Motif, Carlsbad, Calif.). Nuclear extracts of the same protein concentration from individual treatments were subject to the PPARγ transcription factor ELISA according to the manufacturer's instruction.

[8] = system: PC-3 xenograft tumors; assay: Xenograft tumor growth (PC-3 tumors in nude mice)
Procedure: Xenograft tumor growth. Male NCr athymic nude mice (5-7 weeks of age) were obtained from the National Cancer Institute (Frederick, Md.). […] All experimental procedures utilizing these mice were performed in accordance with protocols approved by the Institutional Laboratory Animal Care and Use Committee of The Ohio State University.
Each mouse was inoculated subcutaneously in the right flank with 5×10^5 PC-3 cells suspended in 0.1 ml of serum-free medium containing 30% Matrigel (BD Biosciences, Bedford, Mass.) under isoflurane anesthesia. […] Controls received vehicle consisting of 0.5% methylcellulose and 0.1% polysorbate 80 in sterile water. The volume of drug or vehicle administered to each mouse was 0.02 ml/gram body weight. Tumors were measured weekly using calipers and their volumes calculated using a standard formula: width^2×length×0.52. Body weights were measured weekly.
Statistical analysis. […] Tumor growth data are expressed as mean tumor volumes±SE. For all data, differences were considered significant at P<0.05. Statistical procedures were performed using SPSS for Windows (SPSS, Inc., Chicago, Ill.).

[9] = system: caspase-9; assay: Caspase-9 activation in PC-3 cells (Western blot); format: cell-based; conditions: 24 h
Procedure: as §4, §5

[10] = target: T3, Bcl-2/Bak (Homo sapiens, UniProt P10415); assay: Co-immunoprecipitation of Bak with Bcl-2 in PC-3 cells; format: cell-based; conditions: 50 μM, 12 h, compared to DMSO control
T3 construct: endogenous in cells; host or cells: PC-3 prostate cancer cells
Procedure: (§6) Co-immunoprecipitation. […] After centrifugation at 13000×g for 15 min, the supernatants were collected, pre-incubated with protein A-Sepharose (Sigma, St. Louis, Mo.) for 15 min, and centrifuged at 1000×g for 5 min. The supernatants were exposed to Bcl-2 or Bcl-xL antibodies in the presence of protein A-Sepharose at 4° C. for 2 h. After brief centrifugation, protein A-Sepharose were collected, washed with the aforementioned lysis buffer 2 times, suspended in 2×SDS sample buffer, and subjected to Western blot analysis with antibodies against Bak.

[11] = target: T4, Bcl-xL/Bak (Homo sapiens, UniProt Q07817); assay: Co-immunoprecipitation of Bak with Bcl-xL in PC-3 cells; format: cell-based; conditions: 50 μM, 12 h, compared to DMSO control
T4 construct: endogenous in cells; host or cells: PC-3 prostate cancer cells
Procedure: as §6

[12] = inhibition of Bak BH3 peptide binding to Bcl-xL, FP, read-out: IC50 Bcl-xl/Bak
[13] = inhibition of Bak BH3 peptide binding to Bcl-2, FP, read-out: IC50 Bcl-2/Bak

T1 sequence (Q07817 1-209 limits assumed): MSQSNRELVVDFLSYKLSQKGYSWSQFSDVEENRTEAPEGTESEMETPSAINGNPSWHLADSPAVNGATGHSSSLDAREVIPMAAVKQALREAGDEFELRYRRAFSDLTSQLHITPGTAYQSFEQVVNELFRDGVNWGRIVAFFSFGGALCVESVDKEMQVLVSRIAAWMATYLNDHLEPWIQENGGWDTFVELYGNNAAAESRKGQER
Chain of Bcl-2 (P10415 whole entry): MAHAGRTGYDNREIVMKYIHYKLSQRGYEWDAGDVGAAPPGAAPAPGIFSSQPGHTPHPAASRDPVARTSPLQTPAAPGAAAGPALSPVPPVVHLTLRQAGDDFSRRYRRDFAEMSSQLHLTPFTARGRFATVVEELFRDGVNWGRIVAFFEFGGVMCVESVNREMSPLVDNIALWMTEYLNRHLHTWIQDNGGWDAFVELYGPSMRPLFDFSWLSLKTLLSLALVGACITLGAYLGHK
T4 sequence (Q07817 whole entry): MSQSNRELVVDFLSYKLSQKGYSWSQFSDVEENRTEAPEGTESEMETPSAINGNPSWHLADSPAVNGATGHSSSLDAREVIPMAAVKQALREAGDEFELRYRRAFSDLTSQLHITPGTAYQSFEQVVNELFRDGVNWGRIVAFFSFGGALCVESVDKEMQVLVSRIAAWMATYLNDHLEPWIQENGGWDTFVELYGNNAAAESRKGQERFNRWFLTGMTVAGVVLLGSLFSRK
T3 sequence (P10415 whole entry): as the sequence (P10415 whole entry) above

Cc1c(C)c2c(c(C)c1O)CCC(C)(COc1ccc(CC3SC(=O)NC3=O)cc1)O2 (centres unmarked) [TG, troglitazone, reference compound]
IC50 [1, 12]: 22 ± 1 µM | IC50 [2]: 22 ± 3 µM | IC50 [3, 13]: 22 ± 1 µM | IC50 ([4]; Homo sapiens, PC-3, PC-3 cells): 30 ± 2 µM

Cc1c(C)c2c(c(C)c1OC/C=C/c1ccccc1)CCC(C)(COc1ccc(/C=C3\SC(=O)NC3=O)cc1)O2 (centres unmarked) [TG-10]
IC50 [5]: > 7.5 µM | IC50 [1, 12]: 13 ± 0.9 µM | IC50 [3, 13]: 19 ± 0.8 µM | IC50 [6]: 19 µM | IC50 ([4]; Homo sapiens, PC-3, PC-3 cells): 19 ± 0.5 µM

Cc1c(C)c2c(c(C)c1OC(=O)CCC(=O)O)CCC(C)(COc1ccc(/C=C3\SC(=O)NC3=O)cc1)O2 (centres unmarked) [TG-13]
IC50 [5]: > 7.5 µM | IC50 [1, 12]: 28 ± 1.4 µM | IC50 [3, 13]: 30 ± 1.5 µM | IC50 [6]: > 50 µM | IC50 ([4]; Homo sapiens, PC-3, PC-3 cells): 22 ± 0.6 µM

CC(C)=CCOc1c(C)c(C)c2c(c1C)CCC(C)(COc1ccc(/C=C3\SC(=O)NC3=O)cc1-c1ccc(C(F)(F)F)cc1)O2 (centres unmarked) [TG-31]
IC50 [5]: > 7.5 µM | IC50 [1, 12]: 4.9 ± 1.2 µM | IC50 [3, 13]: 4.7 ± 2 µM | IC50 [6]: > 50 µM | IC50 ([4]; Homo sapiens, PC-3, PC-3 cells): 30 ± 1.1 µM

CCc1ccc(-c2cc(/C=C3\SC(=O)NC3=O)ccc2OCC2(C)CCc3c(C)c(OCC=C(C)C)c(C)c(C)c3O2)cc1 (centres unmarked) [TG-33]
IC50 [5]: > 7.5 µM | IC50 [1, 12]: 18 ± 0.8 µM | IC50 [3, 13]: 21 ± 1.4 µM | IC50 [6]: > 50 µM | IC50 ([4]; Homo sapiens, PC-3, PC-3 cells): 17 ± 0.9 µM

CC(C)=CCOc1c(C)c(C)c2c(c1C)CCC(C)(COc1ccc(/C=C3\SC(=O)NC3=O)cc1Br)O2 (centres unmarked) [TG-88]
IC50 [5]: > 7.5 µM | IC50 [1, 12]: 1.8 ± 0.2 µM | activity in PPARγ activation [7]: lacked appreciable activity | IC50 [3, 13]: 2.8 ± 0.3 µM | extent of tumor growth inhibition ([8]; 100 mg/kg/day oral, after 63 days of treatment): 50% | extent of tumor growth inhibition ([8]; 200 mg/kg/day oral, after 63 days of treatment): 61% | tolerability, signs of toxicity ([8]; 100 and 200 mg/kg/day oral, nude mice): without observable signs of toxicity | body weights ([8]; 100 and 200 mg/kg/day oral, throughout the course of study): stable body weights | gross pathology at necropsy ([8]; after 63 days of treatment): No gross pathological abnormalities | IC50 ([4]; Homo sapiens, PC-3, PC-3 cells): 2.5 ± 0.2 µM | IC50 ([4]; PC-3 cells): 4.2 ± 0.2 µM

CC1(COc2ccc(/C=C3\SC(=O)NC3=O)cc2)CCCCC1 [Δ2-CG, 5-[4-(1-methyl-cyclohexylmethoxy)-benzylidene]-thiazolidine-2,4-dione]
IC50 [5]: 13 µM | IC50 [1, 12]: 17 ± 2 µM | activity in PPARγ activation [7]: completely devoid of the ligand binding activity | IC50 [3, 13]: 22 ± 3 µM | IC50 [6]: 70 µM | IC50 ([4]; Homo sapiens, PC-3, PC-3 cells): 15 ± 1.2 µM

CCc1ccc(CCOc2ccc(/C=C3\SC(=O)NC3=O)cc2)nc1 [Δ2-PG, 5-{4-[2-(5-ethyl-pyridin-2-yl)-ethoxy]-benzylidene}-thiazolidine-2,4-dione]
IC50 [1, 12]: > 50 µM | IC50 ([1]; unit inferred, read-out: IC50 for inhibiting BH3-mediated protein interactions (Bcl-xL)): > 50 µM | activity in PPARγ activation [7]: completely devoid of the ligand binding activity | IC50 [3, 13]: > 50 µM | IC50 ([3]; unit inferred, read-out: IC50 for inhibiting BH3-mediated protein interactions (Bcl-2)): > 50 µM | IC50 ([4]; Homo sapiens, PC-3, PC-3 cells): > 50 µM

Cc1c(C)c2c(c(C)c1O)CCC(C)(COc1ccc(/C=C3\SC(=O)NC3=O)cc1)O2 (centres unmarked) [Δ2-TG, 5-[4-(6-hydroxy-2,5,7,8-tetramethyl-chroman-2-ylmethoxy)-benzylidene]-2,4-thiazolidine-dione]
caspase-9 activation [9]: dose-dependent | IC50 [5]: 22 µM | IC50 [1, 12]: 18 ± 1 µM | activity in PPARγ activation [7]: completely devoid of the ligand binding activity | IC50 [2]: 14 ± 1 µM | level of Bak associated with Bcl-2 [10]: significantly reduced | level of Bak associated with Bcl-xL [11]: significantly reduced | IC50 [3, 13]: 18 ± 1 µM | IC50 ([4]; Homo sapiens, PC-3, PC-3 cells): 20 ± 2 µM
